Laboratory results as given in patent US8367620B2, “Peptidic growth hormone secretagogues analog compounds and preparations thereof” (Centro de Ingenieria Genetica y Biotecnologia, priority 2006, dated 2013).
Read-outs that look alike come from different tables or passages of the source. Where a SMILES comes first, the peptide text is derived from it. Bridges are numbered along the chain shown (N, C = ends). Where no end group is shown, it is not given here. [ ]: non-standard residue; d: D form. d2Nal = N[C@H](Cc1ccc2ccccc2c1)C(=O)O

Key:
PC12 cells = type: cell-based
Experimental: PC12 cells were stored in 75 cm^2 culture flasks on DMEM containing 5% bovine foetal serum and 10% horse serum, with 50 μg/ml gentamicin. Cells were incubated at 37° C. in 5% CO2. To induce differentiation cells were transferred at a density of 1×10^4 to polylysine covered 96 well plates in NGF supplemented DMEM media for 7 days, with medium replacement every 2-3 days. After differentiation cells were incubated with peptidic GHS analog compounds, at different concentrations for 72 h. Cell survival and proliferation was determined using the Promega non-radioactive cytotoxicity proliferation assay, Cell Titer 96, based in the conversion of 3-(4,5-dimethylthiazole-2-yl)-2,5-diphenyltetrazolium bromide (MTT) in to a spectrophotometrically detectable product. After deprivation of NGF medium is removed and 15 μl of the DMEM dissolved dye is added, after 4 hours of 37° C. incubation 100 μl of the stopping solution is added and absorbance is measured at 570 nm

[1] = test system: primary cultures of granular cerebellum cells; type: cell-based, Wistar rats
Experimental: Primary cultures of granular cerebellum cells were obtained from 7-9 days Wistar rats. After a rapid dissection, rat cerebellums were submerged in a cold solution and meningeal membranes were removed, each organ was transferred to a 2-3 ml fresh medium solution and finely sliced. Cells were dissociated using a Pasteur pipette and filtered through a nylon […] membrane (Falcon, Franklin Lakes, N.J.). The number of viable cells was determined by cell counting in a hematocytometer with tripan blue as a marker. Cells were cultured on polylysine covered 96 well plates at a density of 6250 cells in […] final volume. Cultures were kept at 37° C. in 5%. CO2 after 24 h, 10 μM of cytosine arabinofuranose (AraC; Sigma) was added to inhibit the proliferation of non-neuronal cells. The capacity of neural damage prevention was tested adding 500 μM hydrogen peroxide in different concentrations of peptidic GHS analog compounds, Cell survival was determined using the Promega non-radioactive cytotoxicity proliferation assay, Cell Titer 96 (Promega).

IGF-I mRNA = IGF-I mRNA in liver and GH level of intraperitoneally injected tilapias; type: in vivo, tilapia; conditions: liver of intraperitoneally injected tilapias
Experimental: IGF-I mRNa was determined in the liver of intraperitoneally injected tilapias monitoring also the GH level time course, showing the peptidic GHS analog compounds as able to stimulate in fish the GH levels in the bloodstream and at incrementing the IGF-I mRNA levels after the injection of the compounds as shown in table 4.

tilapias = assay: Growth acceleration on juvenile tilapias treated intraperitoneally; type: in vivo; conditions: juvenile tilapia, ip 0.1 μg/g twice a week, three weeks
Experimental: The compounds were dissolved in a sodium phosphate (PBS) buffer solution and injected twice a week, during three weeks at 0.1 μg/g of humid fish weight (gbw). Compounds were applied individually to a group of 10 male tilapias with an average weight of 60.41±10.36 g and a control group with an average weight of 60.58±19.67 g was receiving PBS only as a control, measuring the average weight every week, all animals in the experiment were labelled with microchips (Stoelting Co. Wood Dale, USA.). for proper identification.

[2] = test system: tilapia Oreochromis sp. larvae; assay: Growth stimulation of tilapia larvae by immersion; type: in vivo; conditions: immersion 100 μg/L, one hour twice a week, three weeks
Experimental: (§1) Growth stimulation experiments on tilapia Oreochromis sp. larvae were performed evaluating groups of 100 larvae with 0.01 g average, using the peptidic GHS analogs, in a 100 μg/L concentration, twice a week using an immersion time of one hour.

lysozyme = assay: Lysozyme levels in tilapia larvae treated by immersion; type: in vivo, Oreochromis sp.; conditions: immersion 100 μg/L
Experimental: as §1
During this experiment lysozyme levels were also monitored and an increase of this immunity marker was obtained in the treated animals as shown in table 8.

Litopenaeus vanamei [3] = assay: Growing of shrimp larvae by dipping in solution of the compounds; type: in vivo; conditions: four dips of one hour every three days, 0.1 g/L
Experimental: (§2) Shrimp larvae were subjected two four dips, for one hour every three days with different peptidic GHS analogs at 0.1 g/L. The control group was subjected to the same frequency of dipping with 1 mg/L BSA.

Litopenaeus vanamei [4] = assay: Shrimp dipping experiment in production conditions; type: in vivo
Experimental: as §2
This experiment was also performed in production conditions for compounds A221, A228 y A233, with a 20% of higher survival compared with the controls, keeping a stimulation of 110% on the weight and 30% in the size, showing on the treated animals a better homogeneity on the size distribution with only a 30% and a 8% of variation coefficient in weight and size respectively, on contras with a 77% and 30% in the non treated group.

[5] = test system: Post-larvae of Litopenaeus vanamei; assay: Growth stimulation in shrimps by dietary supplementation; type: in vivo; conditions: compound at 1% in post-larvae crustacean diet
Experimental: The peptidic GHS analogs were included at 1% in a post-larvae crustacean diet. Post-larvae of Litopenaeus vanamei were fed with the aforementioned diet in parallel with a control group with 1% BSA addition. The effect was measured with an optical micrometer and weighing the animals in a 0.1 mg precision scale.

[6] = test system: Litopenaeus vanamei post-larvae; assay: Growth of shrimp post-larvae fed Artemia-bioencapsulated compounds; type: in vivo; conditions: Artemia bioencapsulated (10 mh/L, one hour), fed four times a day for one month
Experimental: The peptidic GHS analogs were bioencapsulated in Artemia to be fed to Litopenaeus vanamei post-larvae. For the encapsulation the compounds were added in a 10 mh/L left for an hour, harvested and washed. The animals were fed four times a day for one month while the control group was fed with BSA encapsulated Artemia The effect was measured with an optical micrometer and weighing the animals in a 0.1 mg precision scale.

[7] = test system: Doxorubicin induced Dilated Cardiomyopathy; assay: Prevention of Doxorubicin induced myocardial failure in rats (VEF, forced swimming); type: in vivo, Wistar rats; conditions: for ventricular ejection fraction (VEF) with respect to the healthy control: rats, Dx 2 mg/kg 8 weeks plus compound ip 500 μg/Kg, placebo VEF drop about 40%; for survival after forced swimming: Dx treated rats, compound ip 500 μg/Kg, 4° C. water 30 minutes, Dx-saline 45%
Experimental: To reproduce the physiopathogenic effects of a Dilated Cardiomyopathy (DCM) female Wistar rats of 160 g were treated with 2 mg/kg Doxorubicin (Dx) during 8 weeks. A group of this rats was also treated in parallel with compounds A221, A228 or A233 intraperitoneally at 500 μg/Kg during the 8 weeks of Dx treatment, another Dx treated group was also receiving saline solution as a placebo, and as a healthy control for the experiment another group of untreated Wistar rats of the same age was used. After the 8 week treatment all the rats were tested with an echocardiogram, to test the ventricular functionality and assess the ventricular ejection fraction (VEF).

[8] = test system: Doxorubicin induced Dilated Cardiomyopathy; assay: Reversion of Doxorubicin induced dilated cardiomyopathy in rats, dose-response; type: in vivo, Wistar rats; conditions: rats with Dx induced DCM; for mortality in the group respect to placebo or lower concentrations / total VEF recovery: 50 μg/kg; for DCM reversion two weeks after the treatment: 50 μg/kg to 500 μg/kg; for DCM reversion at 4 weeks of treatment: 100 to 500 μg/kg; for VEF recovery at lower concentrations: doses lower than 50 μg/kg
Experimental: To assess if there is any dose-response effect and reversion of DCM, Wistar rats were subjected to a treatment with 2 mg/kg of Doxorubicin (Dx) for 8 weeks, after the treatment all rats with a VEF drop higher than 40% were selected, divided in groups of n=8 and treated with different doses of compounds A221, A228 or A233 as follows: • 500 μg/kg, • 250 μg/kg, • 100 μg/kg, • 50 μg/kg, • 25 μg/kg, • 10 μg/kg • Saline Solution.
(FIG. 4, a A221, b A228 and c A233).

GH release = conditions: McDowell 1995; compared to GHRP-6; cited from earlier work
[9] = differentiated PC12 cells, 72 h incubation, MTT, read-out: IC50 during the NGF deprivation induced neuronal death
[10] = 500 μM hydrogen peroxide, rat cerebellum granular cells, read-out: IC50 during the induced neuronal damage by Hydrogen Peroxide addition to a primary culture of neurons

| Molecule | Normalized IGF-I mRNA levels to a non related synthetic peptide control group (IGF-I mRNA) | Weight Inc. (%), control group growing = 100% (tilapias) [%] | Weight Inc. (%), control group growing = 100% [2] [%] | Lysozyme levels of the treated animals relative to the control group (lysozyme) | Size Inc. (%), control group growing = 100% (Litopenaeus vanamei [3]) [%] | Weight Inc. (%), control group growing = 100% (Litopenaeus vanamei [3]) [%] | higher survival compared with the controls (Litopenaeus vanamei [4]) [%] | stimulation in the size (Litopenaeus vanamei [4]) [%] | stimulation on the weight (Litopenaeus vanamei [4]) [%] | Size Inc. (%), control group growing = 100% [5] [%] | Size Inc. (%), control group growing = 100% [6] [%] | ventricular ejection fraction (VEF) with respect to the healthy control [7] | mortality in the group respect to placebo or lower concentrations [8] | total VEF recovery [8] | DCM reversion two weeks after the treatment [8] | DCM reversion at 4 weeks of treatment [8] | VEF recovery at lower concentrations [8] | IC50 (PC12 cells; [9]) [µM] | IC50 [1, 10] [nM] | survival after forced swimming [7] [%] | also measured |
| --- | --- | --- | --- | --- | --- | --- | --- | --- | --- | --- | --- | --- | --- | --- | --- | --- | --- | --- | --- | --- | --- |
| NCC(=O)N[C@@H](CO)C(=O)N[C@H]1CCCCNC(=O)C[C@@H](C(=O)N[C@@H](CO)C(=O)N2CCC[C@H]2C(=O)N[C@@H](CCC(=O)O)C(=O)N[C@@H](Cc2c[nH]cn2)C(=O)N[C@@H](CCC(N)=O)C(=O)O)NC(=O)[C@H](Cc2ccccc2)NC1=O [Compound A221, GSKFDSPEHQ] (H-GSKFDSPEHQ-OH; lactam 3-5; N-terminus and C-terminus assumed) | 1.32 | 98.0 | 97.0 | 1.01 | 112.0 | 120.1 | 20 | 30 | 110 | 130.0 | 130.2 | slightly modified VEF | somehow effective to reduce mortality | not effective for the total VEF recovery | partially reverts DCM | DCM reversion is complete | do not recovered VEF | – | – | – | IC50 (PC12 cells; 72 h): 2.02 µM; IC50 [1]: 1800 nM |
| GKFDLSPEHQ [Compound A233, L-amino acid peptide with internal side-chain cycle, SEC; ID NO: 13] | 1.69 | 165.0 | 155.0 | 2.68 | 124.9 | 143.0 | 20 | 30 | 110 | 140.1 | 140.0 | slightly modified VEF | somehow effective to reduce mortality | not effective for the total VEF recovery | partially reverts DCM | DCM reversion is complete | do not recovered VEF | 5 | 3560 | 100 | – |
| GKFGDLSPEHQ [Compound A228, L-amino acid peptide with internal side-chain cycle, SEC; ID NO: 8] | 1.18 | 130.6 | 132.0 | 1.08 | 118.9 | 128.2 | 20 | 30 | 110 | 140.0 | 140.0 | slightly modified VEF | somehow effective to reduce mortality | not effective for the total VEF recovery | partially reverts DCM | DCM reversion is complete | do not recovered VEF | 3.99 | 1770 | 100 | – |
| [dK][d2Nal]AW[dF]EK-NH2 | – | – | – | – | – | – | – | – | – | – | – | – | – | – | – | – | – | – | – | – | fold increased activity in vitro (GH release): 10 fold |
